Test results as given in patent US20250230138A1, “COMPOUNDS HAVING A T-STRUCTURE FORMED BY AT LEAST FOUR CYCLES FOR USE IN THE TREATMENT OF CANCER AND OTHER INDICATIONS” (TheRas, Inc., priority 2022, published 2025).
Where two headings read alike, the source gives them in different places.

What was measured:
[1] = molecular target: Cys242 in human PIK3CA (157-299) (Homo sapiens (Human), UniProt P42336); assay: Covalent modification assay using MALDI-TOF MS; format: biochemical; details: 4 h reaction time point
Cys242 in human PIK3CA (157-299), sequence (P42336 157-299): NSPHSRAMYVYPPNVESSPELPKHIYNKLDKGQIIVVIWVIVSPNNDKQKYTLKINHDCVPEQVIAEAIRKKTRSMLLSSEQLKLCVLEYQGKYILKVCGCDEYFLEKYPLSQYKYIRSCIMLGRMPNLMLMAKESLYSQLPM
Outline: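 Covalent adduct formation was read by linear-mode MALDI-TOF with sinapinic acid matrix, reported as modified-protein peak height divided by total protein peak heights. Reactions held PIK3CA (157-299) at 1 or 3.33 μM in HEPES/NaCl/MgCl2 buffer, pH 7.3, sampled after 15 min to 4 h at room temperature.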

pAKT in BT474 cells = assay: Cell-based pAKT HTRF assay in BT474 cells; details: BT474 cells, 4 hr incubation, read-out: pAKT inhibition IC50 in BT474 cells
Outline: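 9-pt curve, top 3 μM, 3-fold steps, 0.25% DMSO; 4 hr compound exposure. Lysis, then HTRF with d2/Eu Cryptate antibody pair, 4–24 h RT. Ex 320 nm, Em 615 nm.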

[2] = 1 μM protein target, 1:5 protein to compound ratio (compounds 853-1279)
[3] = 3.33 μM protein target, 1:7.5 protein to compound ratio (compounds 1-852)
[4] = Homo sapiens, BT-474, Compounds 10-999

| IC50 (pAKT in BT474 cells; Compounds 10-999) [nM] | IC50 (pAKT in BT474 cells; Compounds 1000-1279) [nM] | IC50 (pAKT in BT474 cells; [4]) [nM] | SMILES | % of modification [1, 2] | % of modification [1, 3] |
| --- | --- | --- | --- | --- | --- |
| < 100 |  |  | C=CC(=O)N1CCc2ccc(-c3nc(-c4ccc5c(c4)CNC5=O)c4ccsc4c3-c3c(F)cc(F)cc3OCCO)cc2C1 (single isomer, unassigned) [Compound 962] | A (percent of modification of PIK3CA protein ≥75%) |  |
| < 100 |  |  | C=CC(=O)N1Cc2cc(-c3nc(-c4ccc5nc(C)oc5c4)c4ccsc4c3-c3c(F)cc(F)cc3OCCOC)nn2CC1C (centres unmarked) [Compound 497] |  | A (percent of modification of PIK3CA protein ≥75%) |
| < 100 |  |  | C=CC(=O)N1Cc2cc(-c3nc(-c4ccc5c(c4)CCN(C)CC5)c4ccsc4c3-c3c(F)cc(F)cc3OCCOC)nn2C[C@H]1C [Compound 841] |  | A (percent of modification of PIK3CA protein ≥75%) |
|  |  | < 100 | C=CC(=O)N1C[C@H](C)n2nc(-c3nc(-c4ccc5c(c4)CCN(C)C5)c4ccsc4c3-c3c(F)cc(F)cc3OCCOC)cc2[C@@H]1C [Compound 601, 1-[(4S,7S)-2-[7-[2,4-difluoro-6-(2-methoxyethoxy)phenyl]-4-(2-methyl-3,4-dihydro-1H-isoquinolin-6-yl)thieno[3,2-c]pyridin-6-yl]-4,7-dimethyl-6,7-dihydro-4H-pyrazolo[1,5-a]pyrazin-5-yl]prop-2-en-1-one] |  | A (percent of modification of PIK3CA protein ≥75%) |
| 100 to 1000 |  |  | C=CC(=O)N1CCc2nc(-c3nc(-c4ccc5c(c4)CCNC5)c4ccsc4c3-c3ccc(F)cc3OC(F)F)sc2C1 [Compound 215] |  | A (percent of modification of PIK3CA protein ≥75%) |

Continued, compound first:

| SMILES | IC50 (pAKT in BT474 cells; Compounds 10-999) [nM] | IC50 (pAKT in BT474 cells; Compounds 1000-1279) [nM] | IC50 (pAKT in BT474 cells; [4]) [nM] | % of modification [1, 2] | % of modification [1, 3] |
| --- | --- | --- | --- | --- | --- |
| C=CC(=O)N1CCn2nc(-c3nc(-c4cnn(C)c4)c4ccsc4c3-c3ccc(F)cc3OC(C)C)nc2C1 [Compound 225] | < 100 |  |  |  | A (percent of modification of PIK3CA protein ≥75%) |
| C=CC(=O)N1CCc2nc(-c3nc(-c4cnn(C)c4)c4ccsc4c3-c3ccc(F)cc3OCC3CNC(=O)C3)sc2C1 (centres unmarked) [Compound 187] | < 100 |  |  |  | A (percent of modification of PIK3CA protein ≥75%) |
| C=CC(=O)N1CCn2nc(-c3nc(-c4cnn(C5CN(C)C5)c(=O)c4)c4ccsc4c3-c3c(F)cc(F)cc3OCCOC)cc2C1C (centres unmarked) [Compound 1035] |  | < 100 |  | A (percent of modification of PIK3CA protein ≥75%) |  |
| C=CC(=O)N1Cc2cc(-c3nc(-c4cn(C)cn4)c4ccsc4c3-c3c(F)cc(F)cc3OCC(C)(C)O)nn2[C@@H](C)C1 [Compound 883] | < 100 |  |  | A (percent of modification of PIK3CA protein ≥75%) |  |
| C=CC(=O)N1Cc2cc(-c3nc(-n4ccccc4=O)c4ccsc4c3-c3c(F)cc(F)cc3OCCOC)nn2C[C@H]1C [Compound 964, 1-[7-[2,4-difluoro-6-(2-methoxyethoxy)phenyl]-6-[(6R)-6-methyl-5-prop-2-enoyl-6,7-dihydro-4H-pyrazolo[1,5-a]pyrazin-2-1]thieno[3,2-c]pyridin-4-yl]pyridin-2-one] |  |  | < 100 | A (percent of modification of PIK3CA protein ≥75%) |  |
| C=CC(=O)N1CCn2nc(-c3nc(-c4cnn(C)c4)c4ccsc4c3-c3ccc(F)cc3Cl)cc2C1 [Compound 291] | < 100 |  |  |  | A (percent of modification of PIK3CA protein ≥75%) |
| C=CC(=O)N1CCc2nc(-c3nc(-c4ccc5c(c4)CCNC5)c4c(c3-c3ccc(F)cc3OC)CCC4)sc2C1 [Compound 96, 1-[2-[4-(4-fluoro-2-methoxy-phenyl)-1-(1,2,3,4-tetrahydroisoquinolin-6-yl)-6,7-dihydro-5H-cyclopenta[c]pyridin-3-yl]-6,7-dihydro-4H-thiazolo[5,4-c]pyridin-5-yl]prop-2-en-1-one] |  |  | 100 to 1000 |  | A (percent of modification of PIK3CA protein ≥75%) |
| C=CC(=O)N1CCn2nc(-c3nc(-c4cnn(C)c4)c4ccsc4c3-c3c(F)cc(F)cc3OCCOC)cc2[C@H]1C [Compound 584] | < 100 |  |  |  | A (percent of modification of PIK3CA protein ≥75%) |
